{"source": "patent US7238775B2", "about": "“Receptor(SSTR4)-selective somatostatin analogs” (The Salk Institute for Biological Studies, priority 2002, dated 2007)", "note": "“And” between values parts separate entries of the source, which are not always exact repeats. Identical values can stand only once. Numbered stars: 1 amine (or outer) side, 2 acyl side, 3 side chain; on linkers, the order of the positions; unused ones are H or OH. Bridge positions count the residues as written; N and C are the ends. Square brackets hold non-standard residues; d marks the D form. Peptide text beside a SMILES is read from it. Phe(4-NH2) = Nc1ccc(C[C@H](N)C(=O)O)cc1; X2 = NC(=O)N[C@@H](CS[*:2])C(=O)[*:1]"}
{"target": "T1, hSSTR4 (Homo sapiens, UniProt P31391)", "T1 construct": "expressed in transfected cells; host or cells: CHO-K1 cells and CCL39 cells", "T1 sequence (P31391 whole entry)": "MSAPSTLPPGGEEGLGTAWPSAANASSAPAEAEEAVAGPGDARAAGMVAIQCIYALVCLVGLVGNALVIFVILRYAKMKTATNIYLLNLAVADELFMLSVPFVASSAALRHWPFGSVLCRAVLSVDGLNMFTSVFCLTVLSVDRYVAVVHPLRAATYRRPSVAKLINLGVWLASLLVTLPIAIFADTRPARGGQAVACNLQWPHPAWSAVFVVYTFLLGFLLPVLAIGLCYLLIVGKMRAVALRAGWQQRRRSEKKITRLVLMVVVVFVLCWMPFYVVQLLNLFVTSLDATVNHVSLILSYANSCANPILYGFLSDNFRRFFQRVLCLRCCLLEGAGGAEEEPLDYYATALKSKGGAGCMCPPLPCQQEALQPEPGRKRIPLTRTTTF", "assay": "Displacement of 125I-[Leu8,D-Trp22,Tyr25]SRIF-28 from cloned receptor, membrane pellet autoradiography", "assay_type": "binding", "conditions": "not given", "method": "(§1) In vitro Bioassay: The effects of the various somatostatin analogs are tested in vitro for their ability to bind to isolated cloned receptors expressed on CHO-K1 cells and CCL39 cells. CHO-K1 cells are grown in Ham's F-12 medium, and CCL39 cells are grown in Dulbecco's modified Eagle's medium/Ham's F-12(1:1) mix, supplemented with 10% fetal bovine serum, 100 U/ml penicillin and 100 μg/ml streptomycin, in humidified air containing 5% CO2 at 37° C.\n(§2) Cells are washed twice with and scraped into ice-cold 0.05 M Tris-HCl (pH 7.4), collected by centrifugation, and homogenized using a rotor/stator/system in the same buffer. After centrifugation at 120 g for 5 min at 4° C., the supernatant is collected and centrifuged again at 48,000 g for 30 min at 4° C. The resulting pellet is resuspended in ice-cold Tris buffer, transferred into a microfuge tube, and centrifuged at 20,000 g for 15 min at 4° C. After withdrawal of the supernatant, the membrane pellet is stored at −80° C.\n(§3) Receptor autoradiography is performed on 20 μm thick cryostat sections of the membrane pellets, mounted on microscope slides, and then stored at −20° C. […] Increasing concentrations of the unlabeled peptide are used ranging from 0.1-1000 nM. […] IC50 values are calculated after quantification of the data using a computer-assisted image processing system as known in this art.\n(§4) The numbers in parentheses indicate the number of times the particular binding test was carried out."}
{"compound": "(cyclo)H-Cys-Phe-Ala-Trp-Lys-Thr-Gly-Cys-OH (H-CFAWKTGC-OH; disulfide 1-8 (inferred)) [Peptide 12G]", "selectivity in binding to SSTR4 compared with the other 4 receptors (in words)": "selective in binding to hSSTR4"}
{"compound": "(cyclo)H-Cys-Phe-Ala-Trp-Lys-Thr-Val-Cys-OH (H-CFAWKTVC-OH; disulfide 1-8 (inferred)) [Peptide 12E]", "selectivity in binding to SSTR4 compared with the other 4 receptors (in words)": "selective in binding to hSSTR4"}
{"compound": "(cyclo)H-Cys-Phe-Val-D-Trp-Lys-Thr-Phe-Cys-OH (H-CFV[dW]KTFC-OH; disulfide 1-8; SMILES CC(C)[C@@H]1NC(=O)[C@H](Cc2ccccc2)NC(=O)[C@@H](N)CSSC[C@@H](C(=O)O)NC(=O)[C@H](Cc2ccccc2)NC(=O)[C@H]([C@@H](C)O)NC(=O)[C@H](CCCCN)NC(=O)[C@@H](Cc2c[nH]c3ccccc23)NC1=O) [Peptide 11A]", "selectivity in binding to SSTR4 compared with the other 4 receptors (in words)": "selective in binding to hSSTR4"}
{"target": "T1, hSSTR4", "assay": "Displacement of 125I-[Leu8,D-Trp22,Tyr25]SRIF-28 from cloned receptor, membrane pellet autoradiography", "assay_type": "binding", "conditions": "inhibition of 125I-SRIF-28 radioligand binding, cloned human receptor", "method": "as §1, §2, §3, §4"}
{"compound": "C[C@@H](O)[C@@H]1NC(=O)[C@H](CCCCN)NC(=O)[C@@H](Cc2c[nH]c3ccccc23)NC(=O)[C@H](Cc2ccc(N)cc2)NC(=O)[C@H](Cc2ccccc2)NC(=O)[C@@H](NC(N)=O)CSSC[C@@H](C(=O)O)NC(=O)[C@H](Cc2ccccc2)NC1=O", "note": "[Peptide No. 4, (cyclo)Cbm-Cys-Phe-4Aph-D-Trp-Lys-Thr-Phe-Cys-OH] (F[Phe(4-NH2)][dW]KTFC-OH; linker N-7 via X2)", "IC50": "1.1 ± 0.2 nM"}
{"compound": "C[C@@H](O)[C@@H]1NC(=O)[C@H](CCCCN)NC(=O)[C@@H](Cc2c[nH]c3ccccc23)NC(=O)[C@H](Cc2ccc(N)cc2)NC(=O)[C@H](Cc2ccccc2)NC(=O)[C@@H](NC(=O)[C@@H](N)Cc2ccc(O)cc2)CSSC[C@@H](C(=O)O)NC(=O)[C@H](Cc2ccccc2)NC1=O", "note": "[Peptide No. 7, (cyclo)H-Tyr-Cys-Phe-4Aph-D-Trp-Lys-Thr-Phe-Cys-OH]", "IC50": "1.2 ± 0.3 nM"}
{"compound": "C[C@@H](O)[C@@H]1NC(=O)[C@H](CCCCN)NC(=O)[C@H](Cc2c[nH]c3ccccc23)NC(=O)[C@H](Cc2ccc(N)cc2)NC(=O)[C@H](Cc2ccccc2)NC(=O)[C@@H](NC(=O)[C@H](Cc2ccc(O)cc2)NC(N)=O)CSSC[C@@H](C(=O)O)NC(=O)[C@H](Cc2ccccc2)NC1=O", "note": "[Peptide No. 8, (cyclo)Cbm-Tyr-Cys-Phe-4Aph-Trp-Lys-Thr-Phe-Cys-OH]", "IC50": "~1.2 nM and 1.2 nM"}
{"compound": "C[C@@H](O)[C@@H]1NC(=O)[C@H](CCCCN)NC(=O)[C@H](Cc2c[nH]c3ccccc23)NC(=O)[C@H](Cc2ccc(N)cc2)NC(=O)[C@H](Cc2ccccc2)NC(=O)[C@@H](N)CSSC[C@@H](C(=O)O)NC(=O)[C@H](Cc2ccc(O)cc2)NC1=O", "note": "[Peptide No. 9, (cyclo)H-Cys-Phe-4Aph-Trp-Lys-Thr-Tyr-Cys-OH]", "IC50": "1.1 ± 0.2 nM"}
{"compound": "C[C@@H]1NC(=O)[C@H](Cc2ccccc2)NC(=O)[C@@H](N)CSSC[C@@H](C(=O)O)NC(=O)[C@H](C)NC(=O)[C@H]([C@@H](C)O)NC(=O)[C@H](CCCCN)NC(=O)[C@H](Cc2c[nH]c3ccccc23)NC1=O", "note": "[Peptide No. 12A] (H-CFAWKTAC-OH; disulfide 1-8)", "IC50": "3.5 ± 0.8 nM"}
{"compound": "C[C@@H]1NC(=O)[C@H](Cc2ccccc2)NC(=O)[C@@H](NC(=O)[C@@H](N)Cc2ccc(O)c(I)c2)CSSC[C@@H](C(=O)O)NC(=O)[C@H](Cc2ccccc2)NC(=O)[C@H]([C@@H](C)O)NC(=O)[C@H](CCCCN)NC(=O)[C@H](Cc2c[nH]c3ccccc23)NC1=O", "note": "[Peptide No. 13A]", "IC50": "~3.5 nM"}
{"compound": "C[C@@H]1NC(=O)[C@H](Cc2ccccc2)NC(=O)[C@@H](NC(=O)[C@@H](N)Cc2ccc(O)cc2)CSSC[C@@H](C(=O)O)NC(=O)[C@H](Cc2ccccc2)NC(=O)[C@H]([C@@H](C)O)NC(=O)[C@H](CCCCN)NC(=O)[C@@H](Cc2c[nH]c3ccccc23)NC1=O", "note": "[Peptide No. 14, (cyclo)H-Tyr-Cys-Phe-Ala-D-Trp-Lys-Thr-Phe-Cys-OH]", "IC50": "1.1 ± 0.2 nM"}
